The target in this assay is T1, Siglec-6 (Homo sapiens, UniProt O43699).
T1 construct: gene SIGLEC6; captured on CM5 chip
Briefly: surface plasmon resonance (Biacore T200). In kind it is binding. The text has this:
surface plasmon resonance (Biacore T200) on Siglec-6 | The binding affinity between caffeine and Siglec-6 protein is with a calculated KD of […]

Broadly, the Kd is the concentration at which binding is half-saturated. Higher therefore signals weaker binding.

T1 sequence (O43699 27-347 limits assumed): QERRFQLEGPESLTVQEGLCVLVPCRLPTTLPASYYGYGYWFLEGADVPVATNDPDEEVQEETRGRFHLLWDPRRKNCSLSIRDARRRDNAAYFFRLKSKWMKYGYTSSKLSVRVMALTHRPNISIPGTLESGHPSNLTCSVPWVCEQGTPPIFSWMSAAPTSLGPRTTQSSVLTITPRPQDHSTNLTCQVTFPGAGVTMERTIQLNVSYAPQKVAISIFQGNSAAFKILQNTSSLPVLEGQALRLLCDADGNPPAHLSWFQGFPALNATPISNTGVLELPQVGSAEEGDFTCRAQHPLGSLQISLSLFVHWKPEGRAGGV

With `Cn1c(=O)c2c(ncn2C)n(C)c1=O` [caffeine], binding was put at a Kd of 176 nM.

Values taken from PMC12413947, “Caffeine Acts as an Agonist of Siglec-6, Inhibits MRGPRX2-Triggered Mast Cell Degranulation and Anaphylactoid Reactions” (Mediators of Inflammation, 2025).
